According to patent publication EP1228077B1, “RUTHENIUM (II) COMPLEXES WITH HIGH ANTITUMORAL AND ANTIMETASTATIC ACTIVITIES” (priority 1999, dated 2001):

Tests used:
Format in all cases: in vivo
MCa mammary carcinoma [1] = assay: Example 4: prevention of lung metastases in mice with MCa mammary carcinoma; conditions: lung metastases on day 21, i.p. treatment day 12 to 17; for Metastases Number: CBA/Lac female mice, 6 per group
Description: Six groups composed of 6 CBA\Lac kin female mice, weighing 23±3 g were inoculated on day 0 with 10^6 viable cells (as determined with Trypan blue-exclusion test) of MCa mammary carcinoma, in 0.05 ml volume of Dulbecco's buffered at pH 7.4 calcium and magnesium-free saline physiological solution (D-PBS), by intramuscular injection with a sterile insulin syringe. The tumour cells derive from donors of the same strain, were transplanted with an insulin sterile syringe accordingly to the same procedure two weeks before. The tumour cells in PBS suspension were prepared by mechanical mincing of the tumour mass obtained from donor mice and by further removing tissue and cell debris by filtration through a double layer of sterile gauze and further centrifugation at 250xg for 10 minutes. The kin animals were derived from a colony obtained from Chester Beatthy, London (UK) and grown in the University of Trieste pound according to the procedures for the rearing of kin animals. The MCa mammary carcinoma tumour line derives from a stock, kept in liquid nitrogen, of tumour cells obtained originally from Rudjer Boskovic Institute, Zagreb (HR).
From day 12 to day 17 after tumour implantation, the six groups of mice were treated intraperitoneally using an insulin sterile syringe, respectively with: • Group 1. Control: […] body weight/die of sterile pyrogen-free physiological solution; • Group 2. ASC: 6.69 mg/kg body weight/die of ascorbic acid in sterile and pyrogen-free physiological solution; • Group 3. CYST: 12 mg/kg body weight/die of […] in sterile and pyrogen-free physiological solution; • Group 4. RUT: 35 mg/kg body weight/die of Ruthenium (III) complex, (lmH)[trans-RuCl4(Me2SO)(Im)] in pyrogen-free and sterile physiological solution; • Group 5. RUT-ASC: 35 mg/kg body weight/die of the Ruthenium (III) complex, (ImH)[trans-RuCl4(Me2SO)(Im)] and 12 mg/kg body weight/die of cysteine in sterile and pyrogen-free physiological saline solution; • Group 6. RUT-CYST: 35 mg/kg body weight/die of the Ruthenium (III) complex, (ImH)[trans-RuCl4(Me2SO)(Im)] and 12 mg/kg body weight/die of cysteine in sterile and pyrogen-free physiological saline solution.
The reducing agents ascorbic acid and cysteine were used in a equivalent ratio corresponding to 1 with the Ruthenium (III) complex. The redox reaction was immediate. The administration took place after analytical control of the complete reduction of the Ruthenium (III) complex to Ruthenium (II).
(§1) On day 17 from tumour implantation, the growth of the primary tumour was evaluated and the tumor surgically removed after general anaesthesia of the animals with ketamine. The tumor size was determined by measuring both orthogonal axes of the tumour by means of a caliber, the weight in grams of the rotation solid developed around these axes was measured, considering the tumour density equal to 1 and using the formula. (π/6).a^2.b, wherein a was the minor and b the major axis.
On day 21 from tumour implantation, the mice were sacrificed by cervical dislocation and lung metastases were analyzed. The lungs removed from the animal immediately after sacrifice, were divided in single lobes, which were then examined immediately with a low-magnification microscope equipped with an ocular-grid for the measurement of the metastases sizes from which the two orthogonal a and b axes (with a ≤b) are identified. The metastases were then grouped on the basis of their dimensions and the metastatic tumour weight was calculated as the sum of the weight of each single metastasis, each of them regarded as a rotation solid developed around the above mentioned axes, and with a volume calculated by the same formula used for the primary tumour. The experimental data obtained were therefore processed by appropriate statistical tests. The results are reported in Table 1 wherein the number and weight of lung metastases obtained in each group of animal are shown.

[2] = Example 8: systemic toxicity (body weight) in tumour-bearing mice
Description: Four groups each composed of 6 CBA/Lac kin female […] weighing 23±3 g. were inoculated on day 0 with tumour cells according to the protocol described in the previous examples. From day 12 to day 17, after tumour implantation, the four groups of mice were treated intraperitoneally using a sterile insulin syringe, respectively with: • Group 1: Control: 10 ml/kg body weight/die of sterile and pyrogen-free physiological solution; • Group 2: ASC: 6.69 mg/kg body weight/die of ascorbic acid in sterile and pyrogen-free physiological solution; • Group 3: RUT: 35 mg/kg body weight/die of Ruthenium (III) complex, (lmH)[trans-RuCl4(Me2SO)(Im)] in sterile and pyrogen-free physiological solution; • Group 4: RUT+ASC: 35 mg/kg body weight/die of Ruthenium (III) complex (lmH)[trans-RuCl4(Me2SO)(lm)] and 6.69 mg/kg body weight/ die of ascorbic acid in sterile and pyrogen-free physiological saline solution.
The reducing agent (ascorbic acid) was used in a equivalent ratio of 1 with the Ruthenium (III) complex. The redox reaction was immediate.
The administration took place after analytical control of the complete reduction of the Ruthenium (III) complex to Ruthenium (II).
On day 18 from tumour implantation, the primary tumour and the spleen were removed and weighed, as described previously.
The experiment confirms the lower toxicity of the Ruthenium (II) complexes of the invention (group 4) with respect to the prior art Ruthenium (III) complexes (group 3).

MCa mammary carcinoma [3] = assay: Example 5: prevention of lung metastases in mice with MCa mammary carcinoma; conditions: lung metastases on day 23, i.p. treatment day 10 to 15; for Metastases Number: CBA/Lac female mice, 7 per group
Description: In a further experiment similar to the previous one, six groups of animals, each of them composed of 7 CBA/Lac kin female mice, weighing 23±3 g were inoculated on day 0 with cells of MCa mammary carcinoma, according to the protocol described in the previous example. From day 10 to day 15 after tumour implantation, the 6 groups of mice were treated intraperitoneally using a sterile insulin syringe, respectively with: • Group 1: […] RUT: 35 mg/kg body weight/die of Ruthenium (III) complex, (ImH)[trans-RuCl4(Me2SO)(Im)] in sterile and pyrogen-free physiological saline solution; • Group 5: […] The reducing agents glutathione and cysteine were used in an equivalent ratio of 1 with the Ruthenium (III) complex. The redox reaction was immediate. The administration took place after the analytical control of total reduction of the Ruthenium (III) to Ruthenium (II) complexes. On day 16 from tumour implantation, the growth of the primary tumour as described in the previous example was evaluated. On day 23 from tumour implantation, the mice were sacrificed and the metastases were evaluated as in previous example. The experimental data obtained were processed by appropriate statistical tests and reported in Table 2, wherein the number and weight of lung metastases obtained in the treated group of animals are also reported.

[4] = Example 7: systemic toxicity (body weight, spleen weight) in tumour-bearing mice
Description: Four groups, each of them composed of 7 CBA/Lac-kin female mice weighing 23±3 g on day 0 were inoculated with MCa mammary carcinoma cells according to the protocol described in the previous examples. From day 11 to day 16 after tumour implantation, the four groups of mice were treated intraperitoneally using a sterile insulin syringe, respectively with: • Group 1: Control: 10 ml/kg body weight/die of sterile and pyrogen-free physiological solution; • Group 2: CYST: 2 mg/kg body weight/die of cysteine in sterile and pyrogen-free physiological solution; • Group 3: RUT: 35 mg/kg body weight/die of Ruthenium (III) complex (lmH)[trans-RuCl4(Me2SO)(Im)] in sterile and pyrogen-free physiological solution; • Group 4: RUT-CYST: 35 mg/kg body weight/die of Ruthenium (III) complex , (ImH)[trans-RuCl4(Me2SO)(lm)] and 12 mg/kg body weight/die of cysteine in sterile and pyrogen-free physiological solution.
The reducing agent (cysteine) was used in a equivalent ratio of 1with the Ruthenium (III) complex. The redox reaction was immmediate.
The administration took place after analytical control of the complete reduction of the Ruthenium (III) to Ruthenium (II) complexes.
(§2) On day 17 from tumour implantation, the mice were sacrificed, the primary tumour and the spleen were removed and analysed as in the previous example. […]
The data reported in the Table 4 indicate how the body weight and the spleen weight, which are indicators of the systemic toxicity of the treatment, turned out to be more similar to the control (group 1) when the mice were treated with the Ruthenium (II) complexes according to the invention (group 4) than when treated with Ruthenium (III) (group 3) only.

MCa mammary carcinoma [5] = assay: Example 7: primary tumour weight variation in mice with MCa mammary carcinoma; conditions: weight variation with respect to the controls, day 11 to day 17; i.p. treatment day 11 to 16
Description: as §1
Four groups, each of them composed of 7 CBA/Lac-kin female mice weighing 23±3 g on day 0 were inoculated with MCa mammary carcinoma cells according to the protocol described in the previous examples. […]
as §2

[6] = test system: Lewis lung carcinoma (LLC); assay: Example 6: lung metastases in BD2F1 mice with Lewis lung carcinoma; conditions: day 20; treatment day 8 to 13
Description: Groups of 7 BD2F1 female mice were inoculated by means of intramuscular injection on day 0 with cells of Lewis lung carcinoma (LLC). From day 8 to day 13 the animals were treated with the Ruthenium (III) complex [trans-RuCl4(DMSO)(lm)](lmH), (compound of formula II) and with the Ruthenium (II) complex, trans-RuCl2(DMSO)4, both belonging to the state of the art. On day 20 from tumour implantation, the mice were sacrificed and the metastases evaluated. All the procedures of the experiments were carried out as reported in the previous examples.

[7] = day 17, after i.p. treatment day 11 to 16

| SMILES | %T/C (metastases weight in the treated animals/metastases weight in the controls) (MCa mammary carcinoma [1]) [%] | Metastases Weight (MCa mammary carcinoma [1]) [mg] | a.p./a.t (number of animals devoid of metastases/ total number of animals) (MCa mammary carcinoma [1]) | Metastases Number (MCa mammary carcinoma [1]) | %T/C (metastases weight in the treated animals/metastases weight in the controls) (MCa mammary carcinoma [3]) [%] | Metastases Weight (MCa mammary carcinoma [3]) [mg] | Metastases Number (MCa mammary carcinoma [3]) | Lung Metastases Number %T/C [6] [%] | Lung Metastases Weight [6] | Lung Metastases Weight %T/C [6] [%] | also measured |
| --- | --- | --- | --- | --- | --- | --- | --- | --- | --- | --- | --- |
| O=C1O[C@H]([C@@H](O)CO)C(O)=C1O [ASC, ascorbic acid] | 86 | 81.5 ± 14 | 0/6 | 18.3± 8.6 |  |  |  |  |  |  | Body weight (day 12) ([2]; day 12, start of i.p. treatment): 27.6±0.7; Body weight (day 18) ([2]; day 18, after i.p. treatment day 12 to 17): 26.7±1.2 |
| N[C@@H](CS)C(=O)O [CYST, cysteine] | 103 | 94.6 ± 26 | 0/6 | 35.0± 13.5 | 76 | 141.2 ± 15.1 | 30.5±7.2 |  |  |  | % variation (body weight) ([4]; body weight variation with respect to the controls, day 11 to 17): -2.5%; Body weight (day 11) ([4]; day 11, start of i.p. treatment): 30.5±0.6; Body Weight (day 17) [4, 7]: 28.8±0.6; Spleen weight (day 17) [4, 7]: 297± 3.3 |
| N[C@@H](CCC(=O)N[C@@H](CS)C(=O)NCC(=O)O)C(=O)O [GLU, glutathione] |  |  |  |  | 75 | 138.8 ± 20.5 | 47.0±3.9 |  |  |  |  |
| CS(C)=O.[Cl-].[Cl-].[Cl-].[Cl-].[Ru+3].c1c[nH+]c[nH]1.c1c[nH]cn1 [RUT, (ImH)[trans-RuCl4(Me2SO)(Im)]] | 16 | 15.2 ± 2.3 | 0/6 | 7.0± 1.9 | 45 | 83.6 ± 4.5 | 27.5±3.0 | 38 | 47.6±11.5 | 25 | Body weight (day 12) ([2]; mouse, in vivo, ip): 27.0±0.9; Body weight (day 18) ([2]; mouse, in vivo, ip): 23.3±0.8; % Variation of the primary tumour (MCa mammary carcinoma [5]): -30.3%; Body Weight (day 17) ([4]; mouse, in vivo, ip): 26.5±0.8; Body weight (day 11) ([4]; mouse, in vivo, ip): 30.0±1.0; Spleen weight (day 17) ([4]; mouse, in vivo, ip): 197± 8.8 |
| C[SH](C)(=O)[Ru]([Cl])([Cl])([SH](C)(C)=O)([SH](C)(C)=O)[SH](C)(C)=O [trans-RuCl2(DMSO)4] |  |  |  |  |  |  |  | 82 | 85.5±19.3 | 45 |  |
